One experiment addresses T1, human CRF receptors (Homo sapiens, UniProt P34998).
T1 construct: expressed in transfected cells
T1 sequence (P34998 24-415): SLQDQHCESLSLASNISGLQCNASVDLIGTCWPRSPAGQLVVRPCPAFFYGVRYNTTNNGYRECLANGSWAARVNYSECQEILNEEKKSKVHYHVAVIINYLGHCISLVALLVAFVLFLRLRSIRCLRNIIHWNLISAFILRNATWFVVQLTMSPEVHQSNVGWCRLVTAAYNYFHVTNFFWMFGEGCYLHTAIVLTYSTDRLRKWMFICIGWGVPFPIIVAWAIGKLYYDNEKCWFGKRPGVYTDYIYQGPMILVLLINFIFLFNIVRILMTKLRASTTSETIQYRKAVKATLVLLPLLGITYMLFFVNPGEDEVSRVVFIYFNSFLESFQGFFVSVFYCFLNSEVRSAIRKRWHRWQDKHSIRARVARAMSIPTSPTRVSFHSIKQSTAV
Kind of experiment: CRF receptor binding activity (radioligand displacement, Example 25).
Settings: not given
The text has this:
The effectiveness of a compound as a CRF receptor antagonist may be determined by various assay methods. […] CRF receptor affinity may be determined by binding studies that measure the ability of a compound to inhibit the binding of a radiolabeled CRF (e.g., [^125I]tyrosine-CFR) to its receptor (e.g., receptors prepared from rat cerebral cortex membranes). The radioligand binding assay described by DeSouza et al. (supra, 1987) provides an assay for determining a compound's affinity for the CRF receptor.
[formula] where L=radioligand and KD=affinity of radioligand for receptor (Cheng and Prusoff, Biochem. Pharmacol. 22:3099, 1973).
By utilizing radiolabeled CRF ligands, the assay may be used to evaluate the binding activity of the compounds of the present invention with any CRF receptor subtype.
Briefly, the binding assay involves the displacement of a radiolabeled CRF ligand from the CRF receptor. More specifically, the binding assay is performed in 96-well assay plates using 1-10 μg cell membranes from cells stably transfected with human CRF receptors. […] The mixture is incubated for 2 hours at 22° C. followed by separation of the bound and free radioligand by rapid filtration over glass fiber filters. Following three washes, the filters are dried and radioactivity (Auger electrons from ^125I) is counted using a scintillation counter. All radioligand binding data may be analyzed using the non-linear least-squares curve-fitting programs Prism (GraphPad Software Inc) or XLfit (ID Business Solutions Ltd).
One may read the Ki as the dissociation constant of the complex between target and ligand, obtained from inhibition or displacement. With `COc1ccc(-c2c(C)nn3c(N[C@H](C)Cc4noc(C)n4)cc(C)nc23)c(C)c1` [Example 17-1, [3-(4-Methoxy-2-methyl-phenyl)-2,5-dimethyl-pyrazolo[1,5-a]pyrimidin-7-yl]-[(R)-1-methyl-2-(5-methyl-[1,2,4]oxadiazol-3-yl)-ethyl]-amine], the Ki was under 100 nM.

The experiment is the same for the next values; noted with them: displacement of [125I] tyrosine-sauvagine from membranes of cells stably transfected with human CRF receptors; less than 0.10 μM (i.e., 100 nM); read-out: Ki (CRF receptor binding affinity).
`COc1ccc(-c2c(C)nn3c(N[C@H](C)Cc4nc(C(F)(F)F)no4)cc(C)nc23)c(C)c1` [Example 13-5, [3-(4-Methoxy-2-methyl-phenyl)-2,5-dimethyl-pyrazolo[1,5-a]pyrimidin-7-yl]-[(R)-1-methyl-2-(3-trifluoromethyl-[1,2,4]oxadiazol-5-yl)-ethyl]-amine]: the Ki was under 100 nM.
As to `COc1ccc(-c2c(C)nn3c(N[C@H](C)Cc4nc(C(F)(F)F)no4)cc(C)nc23)c(Cl)c1` [Example 13-6, [3-(2-Chloro-4-methoxy-phenyl)-2,5-dimethyl-pyrazolo[1,5-a]pyrimidin-7-yl]-[(R)-1-methyl-2-(3-trifluoromethyl-[1,2,4]oxadiazol-5-yl)-ethyl]-amine], the Ki is under 100 nM.
As for `COc1ccc(-c2c(C)nn3c(N[C@H](C)Cc4nc(C(F)(F)F)no4)cc(C)nc23)c(OC)c1` [Example 13-7, [3-(2,4-Dimethoxy-phenyl)-2,5-dimethyl-pyrazolo[1,5-a]pyrimidin-7-yl]-[(R)-1-methyl-2-(3-trifluoromethyl-[1,2,4]oxadiazol-5-yl)-ethyl]-amine], the Ki was under 100 nM.
Turning to `COc1ccc(-c2c(C)nn3c(N[C@@H](Cc4nc(C)no4)C(F)(F)F)cc(C)nc23)c(OC)c1` [Example 13-8, [3-(2,4-Dimethoxy-phenyl)-2,5-dimethyl-pyrazolo[1,5-a]pyrimidin-7-yl]-[2,2,2-trifluoro-(S)-1-(3-methyl-[1,2,4]oxadiazol-5-ylmethyl)-ethyl]-amine], the Ki is under 100 nM.
As to `COc1ccc(-c2c(C)nn3c(N[C@@H](Cc4nc(C(F)(F)F)no4)C(F)(F)F)cc(C)nc23)c(OC)c1` [Example 13-9, [3-(2,4-Dimethoxy-phenyl)-2,5-dimethyl-pyrazolo[1,5-a]pyrimidin-7-yl]-[2,2,2-trifluoro-(S)-1-(3-trifluoromethyl-[1,2,4]oxadiazol-5-ylmethyl)-ethyl]-amine], the Ki was under 100 nM.
Turning to `COc1ccc(-c2c(C)nn3c(N4CCC[C@H]4Cc4nc(C)no4)cc(C)nc23)c(C)c1` [Example 14-3, 3-(4-Methoxy-2-methyl-phenyl)-2,5-dimethyl-7-[(S)-2-(3-methyl-[1,2,4]oxadiazol-5-ylmethyl)-pyrrolidin-1-yl]-pyrazolo[1,5-a]pyrimidine], the Ki was under 100 nM.
Consider `CC[C@H](Nc1cc(C)nc2c(-c3ccc(OC)cc3Cl)c(C)nn12)c1nc(C)no1` [Example 14-4, [3-(2-Chloro-4-methoxy-phenyl)-2,5-dimethyl-pyrazolo[1,5-a]pyrimidin-7-yl]-[(S)-1-(3-methyl-[1,2,4]oxadiazol-5-yl)-propyl]-amine], for which the Ki is under 100 nM.
For `COCCN(Cc1nc(C)no1)c1cc(C)nc2c(-c3ccc(OC)cc3OC)c(C)nn12` [Example 15-1, [3-(2,4-Dimethoxy-phenyl)-2,5-dimethyl-pyrazolo[1,5-a]pyrimidin-7-yl]-(2-methoxy-ethyl)-(3-methyl-[1,2,4]oxadiazol-5-ylmethyl)-amine], the inhibitory constant (Ki) was under 100 nM.
In the case of `CC[C@@H](Cc1noc(C)n1)Nc1cc(C)nc2c(-c3ccc(OC)cc3C)c(C)nn12` [Example 17-2, [3-(4-Methoxy-2-methyl-phenyl)-2,5-dimethyl-pyrazolo[1,5-a]pyrimidin-7-yl]-[(S)-1-(5-methyl-[1,2,4]oxadiazol-3-ylmethyl)-propyl]-amine], the Ki is under 100 nM.
Take `CC[C@H](Cc1noc(C)n1)Nc1cc(C)nc2c(-c3ccc(OC)cc3C)c(C)nn12` [Example 17-3, [3-(4-Methoxy-2-methyl-phenyl)-2,5-dimethyl-pyrazolo[1,5-a]pyrimidin-7-yl]-[(R)-1-(5-methyl-[1,2,4]oxadiazol-3-ylmethyl)-propyl]-amine]: the inhibition constant (Ki) was under 100 nM.
